Entries after “also recorded” stand apart in the source; their conditions may differ.

Test [1] concerns IFN-gamma, IL-2 and Granzyme B in co-culture of NCI-H1299 cells and human PBMCs. The experiment in a line: Cytokine analysis (MSD U-PLEX) of co-culture supernatant. The class given is cell-based. The conditions noted are these: Formula (I) combined with Pembrolizumab; conditioned media; FIG. 1B. As for the experimental part: Supernatant from the co-culture were plated into a 96-well plate and cytokines were analyzed using the MSD U-PLEX Immuno-Oncology Group 1 (Human) kit (MesoScale Discovery, Custom-made kit). Expressions of IFN-gamma, IL-2 and Granzyme B are shown.
(§1) H1299 (CRL-5803) and H1975 (CRL-5908) were purchased from the American […]. Human Mononuclear Cells (PBMC) (HUMANPBMC-0001989) were purchased from BioIVT. NCI-H1299, NCI-H1975 and all CT26 cells were cultured in RPMI-1640 (ATCC, 30-2001) supplemented with 10% FBS (Gibco, 26140-079) and 1× penicillin-streptomycin (Thermofisher, 15140122). Human Peripheral Bloogd Mononuclear Cells (PBMCs) were cultured in RPMI-1640, 20% FBS, 100U/ml Human Recombinant IL-2 (Gibco, PHC0027) and 1× penicillin-streptomycin. All cells were maintained at 37° C. in 5% CO2 in a humidified incubator.
Supernatant from the co-culture were plated into a 96-well plate and cytokines were analyzed using the MSD U-PLEX Immuno-Oncology Group 1 (Human) kit (MesoScale Discovery, Custom-made kit).

Test [2] concerns SMARCA4 WT NCI-H1975 cells. As to the kind of experiment: Incucyte 3D tumor spheroid growth, NCI-H1975 cells with human PBMCs. The conditions noted are these: Formula (I) 100 nM with pembrolizumab 100 ug/ml; FIG. 2C. The class given is cell-based. As to the method: (§2) The cells were treated with or without Formula (I) and/or pembrolizumab. The data were generated with SMARCA4 deleted NCI-H1299 and SMARCA4 WT NCI-H1975 cells.
(§3) GFP-tagged tumor cells were seeded in 96 well Ultra-Low Adherence (ULA) plates (Corning, 7007) (2000 cells/well) and centrifuged briefly (300 g, 30 seconds) to induce cell aggregation. The cells were incubated at 37° C. overnight to allow complete aggregation into spheroids. Following the addition of immune cells with treatment of Pembrolizumab (MedChemExpress, HY-P9902) (100 ug/ml) and/or Formula (I) (100 nM). Three-dimensional tumor spheroid growth was monitored using Sartorius' Incucyte® SX1 Live-Cell Analysis.
(§4) H1299 and H1975 cells were seeded (500,000 cells/well) in 6 well Tissue Culture Treated plates (Corning 3516) and allowed to aggregate into tumor spheroids for 1-2 hours. Tumor spheroids were treated with 600 ul of Incucyte® Cytolight Lentivirus (Sartorius, 4481) for a MOI of 3 and 8 ug/ml Polybrene Transfection Reagent (Sigma-Aldrich, TR-1003). The cells were incubated at 37° C. overnight. Following incubation, media was removed and replaced with fresh media. GFP expression was monitored using Sartorius' Incucyte® SX1 Live-Cell Analysis System (9600-0031).

The test system of test [3] is SMARCA4 deleted A549 cells. The experiment in a line: Incucyte 3D tumor spheroid growth, A549 cells with HLA-matched T cells. The class given is cell-based, human. As for the experimental part: Green fluorescence protein (GFP) positive A549 cells were cultured with or without HLA-matched T cells and treated with Formula (I) in the spheroid culture system. Representative figures of the 3D cancer cell spheroids were shown.
The data were generated with SMARCA4 deleted A549 cells.
as §3

Test [4] relates to T cells (human PBMCs co-cultured with SMARCA4 deleted NCI-H1299 cells). The experiment in a line: Flow cytometry of T cell activation markers in co-culture of NCI-H1299 cells and human PBMCs. The class given is cell-based. The note with it: Formula (I) combined with Pembrolizumab, FIG. 1A.
Description: Human peripheral blood mononuclear cells (PBMCs) were co-cultured with NCI-H1299 cells (SMARCA4 deleted NSCLC) with Pembrolizumab and/or Formula (I). The cell samples from co-culture were stained for CD3 (T cell marker), CD8 (T cell marker), and CD25 (T cell activation marker) and analyzed by flow cytometry to determine percentages of cells with marker positive populations.
as §1
Samples from co-culture were collected in Eppendorf tubes and 500 ul of PBS was added. The samples were centrifuged (300 g, 5 minutes) to wash. Supernatant was removed and the pellet was resuspended in 200 ul FACS buffer. Samples were placed on ice for 15 minutes to block. After blocking, the samples were centrifuged (300 g, 5 minutes). […]
On the technique in general: Flow cytometry measures light scatter and fluorescence of single cells or particles in a stream.

Test [5] concerns SMARCA4 deleted NCI-H1299 cells. As to the kind of experiment: Incucyte 3D tumor spheroid growth, NCI-H1299 cells with human PBMCs. The note with it: Formula (I) 100 nM with pembrolizumab 100 ug/ml; FIG. 2C. Type of test: cell-based. As to the method:
as §2, §3, §4

Consider `Cc1ncsc1-c1ccc([C@H](C)NC(=O)[C@@H]2C[C@@H](O)CN2C(=O)[C@@H](c2cc(O[C@@H](C)CN3CC[C@@H](N4CCN5c6cc(-c7ccccc7O)nnc6NC[C@H]5C4)C3)no2)C(C)C)cc1` [Formula (I)], for which, in test [1], the “Gramzyme B level in co-culture supernatant” value is reported as “higher levels”, the “IFN-g level in co-culture supernatant” value is on record as “higher levels” and the “IL-2 level in co-culture supernatant” value is reported as “higher levels”. Also, the “combination effect on NCI-H1975 spheroids cultured with PBMCs” value in test [2] is “the combination effect was not seen”. In test [3] (Formula (I) 100 nM in the presence of T cells, quantitated GFP positive cells, FIG. 2A/2B), the “T-cell mediated A549 killing” value is listed as “significantly increased; also recorded: promoted”. For the same compound, in test [3] (Formula (I) 100 nM with HLA-matched T cells, FIG. 2A), the “growth of A549 cancer cells (GFP positive) in 3D spheroid culture” value was “inhibited growth”. In test [4], the “activated (CD25+) CD3+ T cells” value is “increased” and the “activated (CD25+) CD8+ T cells” value is recorded as “increased”. Also, in test [5], the “combination effect on NCI-H1299 spheroids cultured with PBMCs, compared to single agent treated groups” value is given as “showed more”.

(Values after patent US20250114354A1, “COMBINATION TREATMENT REGIMENS - SMARCA2 DEGRADER WITH PD-1 INHIBITORS” (PRELUDE THERAPEUTICS INCORPORATED, priority 2023, published 2025).)
